Values of other authors in US8476249B2, “Method of treating thrombocytopenia” (GlaxoSmithKline LLC, priority 2010, dated 2013).

How the values were obtained:
[1] = specifically in the portal vein system
[2] = in vivo

Compound | thrombotic events [1] | occurrence of portal vein thrombosis [2]
CC1=NN(c2ccc(C)c(C)c2)C(=O)/C1=N\Nc1cccc(-c2cccc(C(=O)O)c2)c1O.NCCO.NCCO [eltrombopag, 3′-[(2Z)-[1-(3,4-dimethylphenyl)-1,5-dihydro-3-methyl-5-oxo-4H-pyrazol-4-ylidene]hydrazino]-2′-hydroxy-[1,1′-biphenyl]-3-carboxylic acid bis-(monoethanolamine)] | associated with thrombotic events | –
enoxaparin | – | reducing the occurrence of portal vein thrombosis
